Earlier results, collected in patent publication US20070225210A1, “Therapeutic vaccine compositions for the treatment of type 1 diabetes” (priority 2003, published 2007).

What was measured:
insulin = settings: aqueous formulations, administered subcutaneously, NOD mice
[1] = system: individuals with, or at risk of, type 1 diabetes; settings: repeat administration of low doses

Substance	prevention of the onset of diabetes (NOD mice; aqueous formulations, administered subcutaneously)	protection from the onset of diabetes (NOD mice; immunization)	protection against diabetes (NOD mice; immunization, administered intranasally)	immune response to insulin (insulin)	symptoms of diabetes and insulin-dependency of the patient [1]
SHLVEALYLVCGERG (Insulin B chain analog) [insulin B chain 9-23, 9-23 fragment of the native insulin B chain]	can prevent the onset of diabetes	protect from the onset of diabetes	partial protection against diabetes	can induce an immune response to insulin	
insulin B chain: native human insulin B chain peptide with cysteinyl residues at positions 7 and 19		protect from the onset of diabetes			can prevent or reduce the symptoms of diabetes and the insulin-dependency of the patient
